The values below are quoted from earlier work in patent US20250064759A1, “CONTAINER COMPRISING A LISDEX[…] SOLUTION” (LABOMED PHARMACEUTICAL COMPANY S.A., priority 2021, published 2025).

For the data set the following is noted: in vivo.

On to `C[C@@H](Cc1ccccc1)NC(=O)[C@@H](N)CCCCN` [Lisdexamfetamine, L-lysine-d-amfetamine], for which the “period over which dexamfetamine is delivered” value is recorded as “about 8 hours”.
